Data as given in patent US20240269133A1, “METHODS OF TREATING INTERSTITIAL CYSTITIS/BLADDER PAIN SYNDROME” (Purdue Pharma L.P., priority 2021, published 2024).

Key:
[1] = test system: CYP-induced visceral pain; assay: Cyclophosphamide (CYP)-induced visceral pain model (acute cystitis), von Frey testing; assay type: in vivo, female Sprague-Dawley rats; conditions: for AUC 1-6 g (allodynia) / Nociceptive threshold: mean ± s.e.m.
[2] = Urine concentration after a single oral dose (methyl cellulose suspension); assay type: in vivo, humans; conditions: human
[3] = 30 mg/kg p.o., overall 2-24 h after CYP

In the case of `CC(C)Cc1ccc(C(C)C(=O)O)cc1` (centres unmarked) [Ibuprofen, reference compound], the “Effect on nociceptive scores vs vehicle” value ([1]; 300 mg/kg p.o., all along the observation period (2-24 h)) is reported as “significantly decreased” and the “Effect on nociceptive threshold vs vehicle” value ([1]; 300 mg/kg p.o., overall 2-24 h after CYP) is reported as “significant overall increase”.

With `O=C(O)c1nc2ccccc2n([C@H]2C[C@H]3CCC[C@@H](C2)N3C2CC3CCCC(C3)C2)c1=O` (some centres unmarked) [compound of formula (IA)] the “AUC 1-6 g (allodynia)” value ([1]; 30 mg/kg p.o., +2 h after CYP) was 19.8±6.9 % scores × g, the Nociceptive threshold ([1]; 30 mg/kg p.o., +2 h after CYP) was 6.6 ± 0.8 g and the “AUC 1-6 g (allodynia)” value ([1]; 30 mg/kg p.o., +3 h after CYP) was 19.3±6.3 % scores × g. The Nociceptive threshold ([1]; 30 mg/kg p.o., +3 h after CYP) was 6.3 ± 1.2 g, the “AUC 1-6 g (allodynia)” value ([1]; 30 mg/kg p.o., +4 h after CYP) was 34.1±7.9 % scores × g and the Nociceptive threshold ([1]; 30 mg/kg p.o., +4 h after CYP) was 4.8 ± 0.8 g. The “AUC 1-6 g (allodynia)” value ([1]; 30 mg/kg p.o., +24 h after CYP) was 61.8±15.7 % scores × g, the Nociceptive threshold ([1]; 30 mg/kg p.o., +24 h after CYP) was 3.7 ± 0.8 g and the “Effect on nociceptive threshold vs vehicle” value ([1]; 30 mg/kg p.o., CYP-injected rats, overall 2-24 h) was “overall inhibitory effect”. The “Effect on nociceptive scores vs vehicle” value ([1]; 30 mg/kg p.o., from 2 h up to 24 h after CYP) was “significant decrease”, the “Effect on AUC 1-6 g vs vehicle” value [1, 3] was “overall decrease” and the “Effect on CYP-induced AUC 6-26 g increase (hyperalgesia) vs vehicle” value [1, 3] was “significant overall inhibitory effect”. The “Urine concentration, mean” value ([2]; 0.2 mg single oral dose, 0 to 8 h) was 2311 nM, the “Urine concentration, mean” value ([2]; 0.2 mg single oral dose, 8 to 16 h) was 394 nM and the “Urine concentration, mean” value ([2]; 0.2 mg single oral dose, 16 to 24 h) was “BQL”. The “Urine concentration, mean” value ([2]; 0.2 mg single oral dose, 24 to 32 h) was “BQL”, the “Urine concentration, mean” value ([2]; 0.2 mg single oral dose, 32 to 40 h) was “BQL” and the “Urine concentration, mean” value ([2]; 0.2 mg single oral dose, 40 to 48 h) was “BQL”. For the same compound, the “Urine concentration, mean” value ([2]; 0.6 mg single oral dose, 0 to 8 h) was 1641 nM, the “Urine concentration, mean” value ([2]; 0.6 mg single oral dose, 8 to 16 h) was 531 nM and the “Urine concentration, mean” value ([2]; 0.6 mg single oral dose, 16 to 24 h) was “BQL”. For the same compound, the “Urine concentration, mean” value ([2]; 0.6 mg single oral dose, 24 to 32 h) was “BQL”, the “Urine concentration, mean” value ([2]; 0.6 mg single oral dose, 32 to 40 h) was “BQL” and the “Urine concentration, mean” value ([2]; 0.6 mg single oral dose, 40 to 48 h) was “BQL”. The “Urine concentration, mean” value ([2]; 2 mg single oral dose, 0 to 8 h) was 10809 nM, the “Urine concentration, mean” value ([2]; 2 mg single oral dose, 8 to 16 h) was 1440 nM and the “Urine concentration, mean” value ([2]; 2 mg single oral dose, 16 to 24 h) was 400 nM. The “Urine concentration, mean” value ([2]; 2 mg single oral dose, 24 to 32 h) was “BQL”, the “Urine concentration, mean” value ([2]; 2 mg single oral dose, 32 to 40 h) was “BQL” and the “Urine concentration, mean” value ([2]; 2 mg single oral dose, 40 to 48 h) was “BQL”. For the same compound, the “Urine concentration, mean” value ([2]; 10 mg single oral dose, 0 to 8 h) was 30964 nM, the “Urine concentration, mean” value ([2]; 10 mg single oral dose, 8 to 16 h) was 14181 nM and the “Urine concentration, mean” value ([2]; 10 mg single oral dose, 16 to 24 h) was 1994 nM. The “Urine concentration, mean” value ([2]; 10 mg single oral dose, 24 to 32 h) was 535 nM, the “Urine concentration, mean” value ([2]; 10 mg single oral dose, 32 to 40 h) was 240 nM and the “Urine concentration, mean” value ([2]; 10 mg single oral dose, 40 to 48 h) was “BQL”.
